From patent US20250269043A1, “TARGETED BIFUNCTIONAL DEGRADERS” (YALE UNIVERSITY, priority 2019, published 2025) come the findings set out here.

Square brackets hold non-standard residues; d marks the D form. Peptide text beside a SMILES is read from it. * marks the point of attachment. Sta = CC(C)C[C@H](N)[C@@H](O)CC(=O)O; Isovaleryl = CC(C)CC(=O)*

The test system of data set [1] is HepG2 cells. The experiment in a line: Effect of protease inhibitors on degradation of endocytosed α-DNP antibody in HepG2 cells (50 kDa/25 kDa band ratio). To be noted: for inhibition of α-DNP antibody degradation (triplicate): 12 hours, each concentration in triplicate, ALLN 100 and 10 μM, FIG. 117; for inhibition of α-DNP antibody degradation (initial screening): leupeptin 20 and 80 μM, E64 50 and 10 μM, antipain 50 and 100 μM, aprotinin 400 or 800 nM, PMSF 100 or 500 μM, AEBSF 10 μM, ALLN 10 μM, FIG. 116. The text has this:
The ratiometric comparison of band intensity at 50 kDa divided by the intensity of the 25 kDa was used as a measure of α-DNP antibody degradation. As endocytosed α-DNP antibody is degraded in cells, this ratio decreases. […] Each ratiometric measurement is produced using only the protein fragments present in the cell lysate.
Protease inhibitors which inhibit α-DNP antibody degradation are expected to cause an accumulation of fluorescent intensity at 50 kDa and a decrease in fluorescent intensity at 25 kDa.
Next it was studied whether the inhibition of α-DNP antibody degradation by protease inhibitors was reproducible. Each protease inhibitor concentration was tested in triplicate in HepG2 cells (FIG. 117).
Pepstatin at a concentration 15 μM was included as a negative control.

The test system of the next data set is α-DNP antibody. Nature of the data set: In vivo depletion of α-DNP antibody from serum in mice (ELISA). The settings on record: i.p. injection; FIG. 79A. Here is the method:
FIG. 94 illustrates that serum levels of α-DNP antibody decrease more rapidly following repeated treatment with DNP-GN3. Serum antibody levels were measured using an ELISA assay. Each experimental group contained three mice. Statistical differences in experiments involving in vivo depletion of α-DNP antibody were assessed by repeated measures two-way ANOVA with Tukey's tests for post-hoc comparison of simple effects between each of the treatment groups and PBS.
Single doses of DNP-GN3 were also found to be efficacious at mediating α-DNP antibody depletion, albeit less effectively than daily dosing (FIG. 96). […] Therefore, it was concluded that DNP-GN3 is able to mediate the depletion of a monoclonal antibody from serum, and functions across a wide range of target protein concentrations and dosing regimens.
DNP-GN3 was also found to be efficacious in depleting polyclonal α-DNP antibody from serum collected from mice immunized with DNP-keyhole limpet haemocyanin (KLH) (FIG. 97). […] Thus, the small molecule DNP-GN3 is not restricted in function to only monoclonal mouse antibodies, but is also effective at removing polyclonal α-DNP antibodies from circulation in mice.
On the technique in general: In an ELISA, binding on a coated surface is turned into a signal by an enzyme label.

Data set [2] concerns HepG2 cells. The experiment in a line: DNP-GN3-mediated endocytosis of fluorescently labeled α-DNP antibody by adherent HepG2 cells. Format: cell-based, human. To be noted: sodium azide and 2-deoxyglucose as combined treatment; FIG. 89. Here is the method: It was next explored whether DNP-GN3 mediates the endocytosis of fluorescently labeled α-DNP antibody.
To explore the cellular mechanism of antibody uptake, cells were treated with chemical inhibitors of several endocytic pathways (FIG. 89).

Data set [3] relates to HepG2 cells. Nature of the data set: MIF-GN3-mediated endocytosis of Alexa 488-labeled human MIF by HepG2 cells. The settings on record: MIF 100 nM, MIF-GN3 200 nM; FIG. 132. On the procedure: Human MIF protein was fluorescently labeled with Alexa 488 NHS ester, then incubated with HepG2 cells in the presence of varying levels of MIF-GN3.
The ability of MIF-GN3 to mediate MIF endocytosis over a wide range of target protein concentrations was assessed.
Next, inhibitors of various endocytic pathways were utilized to determine if MIF-GN3 mediates MIF endocytosis in a manner consistent with ASGPR (FIG. 132).

A further data set deals with T1, human MIF (Homo sapiens, UniProt P14174).
T1 sequence (P14174 2-115 limits assumed): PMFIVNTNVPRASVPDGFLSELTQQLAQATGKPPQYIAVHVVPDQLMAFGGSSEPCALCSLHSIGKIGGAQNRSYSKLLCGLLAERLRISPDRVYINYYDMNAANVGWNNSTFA
The experiment in a line: Depletion of human MIF from cell culture supernatant (sandwich ELISA). The format is cell-based. To be noted: for depletion of MIF from cell culture supernatant, optimized ASGPR-binding motifs / depletion of human MIF from cell culture supernatant: human MIF 100 nM; for depletion of MIF from cell culture supernatant, optimized ASGPR-binding motifs: MIF-AF2 at 40 nM, 200 nM and 1 μM; for depletion of human MIF from cell culture supernatant: FIG. 128A. Here is the method:
The ability of bifunctional MIF-binding molecules to mediate the depletion of human MIF from cell culture was investigated. In these assays, human MIF was present at a concentration of 100 nM, and a sandwich ELISA assay was utilized to measure the concentration of human MIF remaining in the cell culture supernatant. The closely related bifunctional molecules MIF-GN3, MIF-PEG2-GN3, and MIF-PEG4-GN3 were used, as well as the structurally dissimilar molecule MIF-NVS-PEG3-GN3. […] Based on the ease of its synthesis and its efficacy in this experiment, MIF-GN3 was utilized for further studies. It was next investigated whether the MIF inhibitor 3w mediates MIF depletion from cell culture supernatant. […] When cells were treated with 3w, no depletion of exogenous MIF protein was observed after 24 hours (FIG. 128B).
Bifunctional molecules containing optimized ASGPR-binding motifs are also capable of mediating MIF depletion from cell culture supernatant (FIG. 129). The MIF-binding molecule MIF-AF1, which contains only a single ASGPR-binding sugar, was not effective at mediating depletion of MIF from supernatant at any concentration tested. It is hypothesized that this is due to the compound's low predicted affinity for ASGPR (μM range). […] At a concentration of either 200 nM or 1 μM, MIF-AF2 mediated nearly 100%/o depletion of MLF from the cell culture supernatant after 48 hours. […] In contrast to these molecules, which utilize optimized synthetic ASGPR ligands, the GalNAc-based molecule MIF-GN3 mediated only 67.0% and 56.0% removal of MIF from supernatant after 48 hours at concentrations of 1 μM and 200 nM, respectively. […] At a concentration of 40 nM (4.0 pmol of molecule), MIF-AF3 mediates the removal of 83.2% of MIF present in the cell culture supernatant, or 8.32 pmol of human MIF protein. Therefore, it was concluded that under the conditions of this experiment, MIF-AF3 mediates the depletion of 2.08 molar equivalents of MIF protein.

Consider `Cl.NCCc1ccc(S(=O)(=O)F)cc1` [AEBSF, 4-(2-aminoethyl)benzeneulfonyl fluoride hydrochloride], for which, in the data set on HepG2 cells [1], the “inhibition of α-DNP antibody degradation (triplicate)” value (from here on “inhibition … (triplicate)”) was “did not significantly inhibit” and the “inhibition of α-DNP antibody degradation (initial screening)” value (shortened to “inhibition … (initial screening)”) was “not effective”. In addition, the toxicity to cells result in the data set on HepG2 cells [1] (HepG2 cells, pepstatin 5 μM after 24 hours, AEBSF 100 μM, ALLN 100 μM by 24 hours) was “toxic”.
As to `CC(C)C[C@H](NC(=O)[C@@H](O)[C@H](N)Cc1ccccc1)C(=O)O` [Bestatin], in the data set on HepG2 cells [1], the “inhibition … (triplicate)” value is recorded as “did not significantly inhibit” and the “inhibition … (initial screening)” value is on record as “not effective”.
The corresponding values for `CC(C)C[C@H](NC(=O)[C@H]1O[C@@H]1C(=O)O)C(=O)NCCCCN=C(N)N` [Compound E64, E64] are “shown to inhibit” and “effective”.
Regarding `O=C(CCOCC(COCCC(=O)NCCOCCOCCO)(COCCC(=O)NCCOCCOCCO)NC(=O)CNC(=O)COCCOCCOCCNc1ccc([N+](=O)[O-])cc1[N+](=O)[O-])NCCOCCOCCO` [DNP-(OH)3], the “degradation of injected anti-DNP IgG antibodies in mouse serum” value in the data set with α-DNP antibody is on record as “did not show such effect”.
Turning to `CCN(c1nc(N)c(C(=O)N=C(N)N)nc1Cl)C(C)C` [EIPA, 5-(N-Ethyl-N-isopropyl)amiloride], the “effect of endocytic pathway inhibitors on intracellular fluorescence (DNP-GN3-mediated uptake)” value with HepG2 cells [2] is “did not significantly decrease”. Further, the “effect of endocytic pathway inhibitors on MIF-GN3-mediated MIF endocytosis” value in the data set with HepG2 cells [3] was “significantly inhibited uptake”.
In the case of `O=C(CCCOc1ccc2nc(-c3cn(-c4ccc(O)c(F)c4)nn3)ccc2c1)NCCOCCC(=O)NCCOCCOCCOCCOC[C@]12CO[C@H](O1)[C@H](NC(=O)C(F)(F)F)[C@@H](O)[C@H]2O` [MIF-AF1], at human MIF (FIG. 129), the “depletion of MIF from cell culture supernatant, optimized ASGPR-binding motifs” value was “not effective”.
Turning to `O=C(CCOCC(COCCC(=O)NCCOCCOCCOCCOC[C@]12CO[C@H](O1)[C@H](NC(=O)C(F)(F)F)[C@@H](O)[C@H]2O)NC(=O)CCCOc1ccc2nc(-c3cn(-c4ccc(O)c(F)c4)nn3)ccc2c1)NCCOCCOCCOCCOC[C@]12CO[C@H](O1)[C@H](NC(=O)C(F)(F)F)[C@@H](O)[C@H]2O` [MIF-AF2], on human MIF (200 nM or 1 μM, after 48 hours, FIG. 129), the “depletion of MIF from the cell culture supernatant” value is reported as approximately 100%. The “depletion of MIF from cell culture supernatant, optimized ASGPR-binding motifs” value at human MIF (FIG. 129) is on record as “effective”.
In the case of `O=C(CCOCC(COCCC(=O)NCCOCCOCCOCCOC[C@]12CO[C@H](O1)[C@H](NC(=O)C(F)(F)F)[C@@H](O)[C@H]2O)(COCCC(=O)NCCOCCOCCOCCOC[C@]12CO[C@H](O1)[C@H](NC(=O)C(F)(F)F)[C@@H](O)[C@H]2O)NC(=O)CCCOc1ccc2nc(-c3cn(-c4ccc(O)c(F)c4)nn3)ccc2c1)NCCOCCOCCOCCOC[C@]12CO[C@H](O1)[C@H](NC(=O)C(F)(F)F)[C@@H](O)[C@H]2O` [MIF-AF3], the “amount of human MIF protein removed” value at human MIF (40 nM (4.0 pmol of molecule)) was determined as 8.32 pmol.
Turning to `CC(=O)NC1C(OCCOCCOCCNC(=O)CCOCC(COCCC(=O)NCCOCCOCCOC2OC(CO)C(O)C(O)C2NC(C)=O)(COCCC(=O)NCCOCCOCCOC2OC(CO)C(O)C(O)C2NC(C)=O)NC(=O)CNC(=O)COCCOCCOCCn2cc(COCCOCCOc3ccc(N4Cc5ccc(O)cc5OC4=O)cc3)nn2)OC(CO)C(O)C1O` (stereo not shown) [MIF-NVS-PEG3-GN3], the “depletion of human MIF from cell culture supernatant” value (shortened to “depletion of human MIF”) at human MIF (24 hours) is reported as “effective”.
On to `CC(=O)NC1C(OCCOCCOCCNC(=O)CCOCC(COCCC(=O)NCCOCCOCCOC2OC(CO)C(O)C(O)C2NC(C)=O)(COCCC(=O)NCCOCCOCCOC2OC(CO)C(O)C(O)C2NC(C)=O)NC(=O)CNC(=O)COCCOCCNC(=O)CCCOc2ccc3nc(-c4cn(-c5ccc(O)c(F)c5)nn4)ccc3c2)OC(CO)C(O)C1O` (stereo not shown) [MIF-PEG2-GN3], for which the “depletion of exogenous MIF protein from cell culture supernatant” value on human MIF (24 hours, FIG. 128B) is “mediated MIF depletion across a range of concentrations”. At human MIF (24 hours), the “depletion of human MIF” value is “effective”.
As to `CC(=O)NC1C(OCCOCCOCCNC(=O)CCOCC(COCCC(=O)NCCOCCOCCOC2OC(CO)C(O)C(O)C2NC(C)=O)(COCCC(=O)NCCOCCOCCOC2OC(CO)C(O)C(O)C2NC(C)=O)NC(=O)CNC(=O)COCCOCCOCCOCCNC(=O)CCCOc2ccc3nc(-c4cn(-c5ccc(O)c(F)c5)nn4)ccc3c2)OC(CO)C(O)C1O` (stereo not shown) [MIF-PEG4-GN3], on human MIF (24 hours), the “depletion of human MIF” value is given as “effective”.
`O=S(=O)(F)Cc1ccccc1` [PMSF, Phenylmethylsulfonyl fluoride]: in the data set on HepG2 cells [1], the “inhibition … (triplicate)” value is recorded as “did not significantly inhibit” and the “inhibition … (initial screening)” value was “not effective”.
Take `CC(C)CC(=O)N[C@H](C(=O)N[C@H](C(=O)N[C@@H](CC(C)C)[C@@H](O)CC(=O)N[C@@H](C)C(=O)N[C@@H](CC(C)C)[C@@H](O)CC(=O)O)C(C)C)C(C)C` [Pepstatin] (Isovaleryl-VV[Sta]A[Sta]-OH): in the data set on HepG2 cells [1], the “inhibition … (triplicate)” value is “did not significantly inhibit” and the “inhibition … (initial screening)” value is “not effective”.
For `Cl.N` [ammonium chloride, NH4Cl], the “effect of endocytic pathway inhibitors on MIF-GN3-mediated MIF endocytosis” value with HepG2 cells [3] is “near background levels”.
On to `CO/C1=C\C(C)=C\[C@@H](C)[C@@H](O)[C@@H](C)C/C(C)=C/C=C/[C@H](OC)[C@@H]([C@@H](C)[C@@H](O)[C@H](C)[C@@]2(O)C[C@@H](O)[C@H](C)[C@@H](C(C)C)O2)OC1=O` [bafilomycin, Bafilomycin], for which the “effect of endocytic pathway inhibitors on intracellular fluorescence (DNP-GN3-mediated uptake)” value in the data set with HepG2 cells [2] is given as “significantly decreased”. For the same molecule, the “effect of endocytic pathway inhibitors on MIF-GN3-mediated MIF endocytosis” value in the data set with HepG2 cells [3] is given as “near background levels”.
As for `CCN(CC)CCCC(C)Nc1ccnc2cc(Cl)ccc12` (stereo not shown) [chloroquine, Chloroquine], the “effect of endocytic pathway inhibitors on intracellular fluorescence (DNP-GN3-mediated uptake)” value in the data set with HepG2 cells [2] is reported as “significantly decreased”. Besides, the “effect of endocytic pathway inhibitors on MIF-GN3-mediated MIF endocytosis” value with HepG2 cells [3] is “near background levels”.
With `CC(=O)N[C@@H](CC(C)C)C(=O)N[C@@H](CC(C)C)C(=O)N[C@H](C=O)CCCNC(=N)N` [leupeptin, Leupeptin], in the data set with HepG2 cells [1], the “inhibition … (triplicate)” value was “shown to inhibit” and the “inhibition … (initial screening)” value is reported as “effective”.
In the case of Aprotinin, in the data set with HepG2 cells [1], the “inhibition … (triplicate)” value is on record as “did not significantly inhibit” and the “inhibition … (initial screening)” value is “not effective”.
